Assay: xn = mol fraction of the nth substance listed
Details: 100 kPa, Liquid; for viscosity: Concentric cylinders viscometry; for mass density: Vibrating tube method

CCCCn1cc[n+](C)c1.O=[N+]([O-])[O-] [1-butyl-3-methylimidazolium nitrate] + CCC(C)O
Details	mass density [kg/m3]	viscosity [mPa·s]
293.15 K, x1 = 0.0813	860.4	5.41
293.15 K, x1 = 0.1595	904.7	7.32
293.15 K, x1 = 0.2402	944.9	10.17
293.15 K, x1 = 0.35	991.2	15.43
293.15 K, x1 = 0.4403	1023.7	21.65
293.15 K, x1 = 0.5597	1060.8	33.63
293.15 K, x1 = 0.6503	1085.4	46.65
293.15 K, x1 = 0.7398	1107	65
293.15 K, x1 = 0.8502	1130.6	100.4
293.15 K, x1 = 0.9399	1147.7	156.4
293.15 K, x1 = 1	1158.3	223.54
298.15 K, x1 = 0.0813	856.7	4.47
298.15 K, x1 = 0.1595	901.2	6.12
298.15 K, x1 = 0.2402	941.3	8.37
298.15 K, x1 = 0.35	987.7	12.73
298.15 K, x1 = 0.4403	1020.3	17.92
298.15 K, x1 = 0.5597	1057.5	27.57
298.15 K, x1 = 0.6503	1082.1	38.2
298.15 K, x1 = 0.7398	1103.8	52.3
298.15 K, x1 = 0.8502	1127.6	79.2
298.15 K, x1 = 0.9399	1144.7	119
298.15 K, x1 = 1	1155.2	168.97
303.15 K, x1 = 0.0813	852.6	3.85
303.15 K, x1 = 0.1595	897.3	5.31
303.15 K, x1 = 0.2402	937.4	7.21
303.15 K, x1 = 0.35	984.1	10.87
303.15 K, x1 = 0.4403	1016.8	15.15
303.15 K, x1 = 0.5597	1054.2	22.92
303.15 K, x1 = 0.6503	1078.9	30.82
303.15 K, x1 = 0.7398	1100.8	41.3
303.15 K, x1 = 0.8502	1124.6	62.3
303.15 K, x1 = 0.9399	1141.8	92
303.15 K, x1 = 1	1152.3	125.36
308.15 K, x1 = 0.0813	848.6	3.32
308.15 K, x1 = 0.1595	893.3	4.58
308.15 K, x1 = 0.2402	933.6	6.25
308.15 K, x1 = 0.35	980.4	9.38
308.15 K, x1 = 0.4403	1013.3	12.93
308.15 K, x1 = 0.5597	1050.9	19.27
308.15 K, x1 = 0.6503	1075.7	25.57
308.15 K, x1 = 0.7398	1097.6	33.2
308.15 K, x1 = 0.8502	1121.7	48.8
308.15 K, x1 = 0.9399	1138.9	70.7
308.15 K, x1 = 1	1149.3	96.74
313.15 K, x1 = 0.0813	844.6	2.83
313.15 K, x1 = 0.1595	889.5	3.98
313.15 K, x1 = 0.2402	929.8	5.46
313.15 K, x1 = 0.35	976.9	8.16
313.15 K, x1 = 0.4403	1009.9	11.18
313.15 K, x1 = 0.5597	1047.7	16.39
313.15 K, x1 = 0.6503	1072.7	21.49
313.15 K, x1 = 0.7398	1094.7	28
313.15 K, x1 = 0.8502	1118.8	40
313.15 K, x1 = 0.9399	1136.1	56.6
313.15 K, x1 = 1	1146.5	75.12
318.15 K, x1 = 0.0813	840.2	2.44
318.15 K, x1 = 0.1595	885.3	3.47
318.15 K, x1 = 0.2402	925.8	4.81
318.15 K, x1 = 0.35	973.4	7.15
318.15 K, x1 = 0.4403	1006.6	9.72
318.15 K, x1 = 0.5597	1044.5	14.08
318.15 K, x1 = 0.6503	1069.6	18.26
318.15 K, x1 = 0.7398	1091.8	23.5
318.15 K, x1 = 0.8502	1116.1	33
318.15 K, x1 = 0.9399	1133.5	44.4
318.15 K, x1 = 1	1143.8	56.28
323.15 K, x1 = 0.0813	836	2.16
323.15 K, x1 = 0.1595	881.2	3.06
323.15 K, x1 = 0.2402	921.9	4.26
323.15 K, x1 = 0.35	969.7	6.32
323.15 K, x1 = 0.4403	1003.1	8.53
323.15 K, x1 = 0.5597	1041.3	12.21
323.15 K, x1 = 0.6503	1066.5	15.68
323.15 K, x1 = 0.7398	1088.9	19.7
323.15 K, x1 = 0.8502	1113.4	27.2
323.15 K, x1 = 0.9399	1130.9	36.6
323.15 K, x1 = 1	1141.2	45.17

CCCCn1cc[n+](C)c1.O=[N+]([O-])[O-] [1-butyl-3-methylimidazolium nitrate] + CCCC(C)O
Details	mass density [kg/m3]	viscosity [mPa·s]
293.15 K, x1 = 0.0812	854	4.47
293.15 K, x1 = 0.1604	893.6	5.28
293.15 K, x1 = 0.2403	929.8	6.43
293.15 K, x1 = 0.3499	974.3	9.03
293.15 K, x1 = 0.4399	1007.1	12.56
293.15 K, x1 = 0.5604	1046.7	20.29
293.15 K, x1 = 0.6505	1073.3	30.81
293.15 K, x1 = 0.7405	1097.8	47.6
293.15 K, x1 = 0.8501	1124.9	83.3
293.15 K, x1 = 0.9396	1145.3	143.6
293.15 K, x1 = 1	1158.3	223.54
298.15 K, x1 = 0.0812	850.4	3.69
298.15 K, x1 = 0.1604	890.1	4.35
298.15 K, x1 = 0.2403	926.4	5.39
298.15 K, x1 = 0.3499	971.1	7.59
298.15 K, x1 = 0.4399	1004	10.53
298.15 K, x1 = 0.5604	1043.5	17.14
298.15 K, x1 = 0.6505	1070.3	25.47
298.15 K, x1 = 0.7405	1094.8	37.96
298.15 K, x1 = 0.8501	1122	63.4
298.15 K, x1 = 0.9396	1142.3	105.6
298.15 K, x1 = 1	1155.2	168.97
303.15 K, x1 = 0.0812	846.5	3.16
303.15 K, x1 = 0.1604	886.5	3.72
303.15 K, x1 = 0.2403	922.9	4.65
303.15 K, x1 = 0.3499	967.8	6.64
303.15 K, x1 = 0.4399	1000.7	9.14
303.15 K, x1 = 0.5604	1040.5	14.61
303.15 K, x1 = 0.6505	1067.4	21.35
303.15 K, x1 = 0.7405	1092.1	31.14
303.15 K, x1 = 0.8501	1119.3	50.3
303.15 K, x1 = 0.9396	1139.5	81.8
303.15 K, x1 = 1	1152.3	125.36
308.15 K, x1 = 0.0812	842.8	2.74
308.15 K, x1 = 0.1604	882.7	3.25
308.15 K, x1 = 0.2403	919.4	4.08
308.15 K, x1 = 0.3499	964.4	5.73
308.15 K, x1 = 0.4399	997.5	7.89
308.15 K, x1 = 0.5604	1037.4	12.37
308.15 K, x1 = 0.6505	1064.4	17.74
308.15 K, x1 = 0.7405	1089.1	25.35
308.15 K, x1 = 0.8501	1116.3	40
308.15 K, x1 = 0.9396	1136.5	63.4
308.15 K, x1 = 1	1149.3	96.74
313.15 K, x1 = 0.0812	838.8	2.3
313.15 K, x1 = 0.1604	879.2	2.8
313.15 K, x1 = 0.2403	916	3.55
313.15 K, x1 = 0.3499	961.2	5.05
313.15 K, x1 = 0.4399	994.4	6.97
313.15 K, x1 = 0.5604	1034.4	10.51
313.15 K, x1 = 0.6505	1061.4	14.75
313.15 K, x1 = 0.7405	1086.1	20.64
313.15 K, x1 = 0.8501	1113.4	31.9
313.15 K, x1 = 0.9396	1133.8	50
313.15 K, x1 = 1	1146.5	75.12
318.15 K, x1 = 0.0812	834.7	1.95
318.15 K, x1 = 0.1604	875.2	2.4
318.15 K, x1 = 0.2403	912.1	3.05
318.15 K, x1 = 0.3499	957.5	4.37
318.15 K, x1 = 0.4399	990.9	5.91
318.15 K, x1 = 0.5604	1031.1	8.91
318.15 K, x1 = 0.6505	1058.3	12.21
318.15 K, x1 = 0.7405	1083.2	17.09
318.15 K, x1 = 0.8501	1110.7	26.5
318.15 K, x1 = 0.9396	1131	40
318.15 K, x1 = 1	1143.8	56.28
323.15 K, x1 = 0.0812	830.7	1.66
323.15 K, x1 = 0.1604	871.4	1.99
323.15 K, x1 = 0.2403	908.7	2.49
323.15 K, x1 = 0.3499	954.3	3.56
323.15 K, x1 = 0.4399	987.9	4.81
323.15 K, x1 = 0.5604	1028.2	7.13
323.15 K, x1 = 0.6505	1055.5	9.68
323.15 K, x1 = 0.7405	1080.5	13.67
323.15 K, x1 = 0.8501	1108.1	21.47
323.15 K, x1 = 0.9396	1128.4	32.3
323.15 K, x1 = 1	1141.2	45.17

From the NIST ThermoML archive (doi:10.1016/j.jct.2019.04.010)
